Assay results from patent US9657046B2, “Methods for the treatment and prevention of inflammatory diseases” (Children's Medical Center Corporation, priority 2010, dated 2017).

How the values were obtained:
[1] = test system: human NKT cell lines; test: Human NKT cell lines, IFN-γ and IL-4 production; type: cell-based; conditions: PI57 10 μg/ml, 48 hours in vitro
Protocol: (§1) In FIG. 7A, NKT cell lines were cocultured with BM-derived DCs (BMDCs) and α-GalCer (100 ng/ml), PI57 (10 μg/ml), or vehicle for 48 hours, with or without pre-incubation with anti-CD1d (10 μg/ml). IFN-γ was measured by ELISA. In FIG. 7B, murine NKT cell lines were cocultured as in 7A with BMDCs from WT, Cd1d^−/−, Myd88^−/−, or Trif^−/− mice. Cells were treated with α-GalCer (100 ng/ml), PI57 (2.5, 5, or 10 μg/ml), PBS30 (1, 2.5, or 5 μg/ml), or vehicle for 48 hours. IFN-γ and IL-4 were measured by ELISA. […] In FIG. 7D, mouse NKT cell lines were stained with PE-labeled CD1d tetramers of PI57 or α-GalCer at 4° C. for 45 minutes or 37° C. for 25 minutes, and with anti-TCRβ-APC antibody. Top: Lymphocytes were gated in the FSC/SSC window. Bottom: Percentage of CD1d tetramer+ cells. […] In FIG. 7G, CD1d Fc-coated Maxisorp plates were loaded with lipid and cultured with 5×10^4 NKT cells. IFN-γ was analyzed by ELISA after 24 hours. Data represent 3 or 5 independent experiments.
Human NKT cells were isolated from peripheral blood of normal volunteers, using a PE-conjugated anti-human NKT cell antibody (clone 6B11, which recognizes the CDR3 loop of the conserved Vα24 TCR found on iNKT cells) (BD Pharmingen) and anti-PE MACS beads (Miltenyi Biotec). Cells retained on the MACS column were then eluted. […]
Mouse or human IL-4 and IFN-γ levels were measured by ELISA, as previously described (20). […]

[2] = test system: OVA-sensitized BALB/c mice; test: Adoptive transfer of NKT cells from glycolipid-treated mice into OVA-sensitized BALB/c recipients (AHR, BAL); type: in vivo, mouse; conditions: OVA-sensitized WT recipients
[3] = test system: adult mice; test: Ozone-exposure model, pre-treatment of adult mice; type: in vivo, mouse; conditions: pre-treatment prior to ozone-exposure
[4] = test system: BALB/c mice; test: OVA-induced AHR in adult mice treated with glycolipid at 2 weeks of age; type: in vivo, mouse; conditions: 2 wk old mice treated i.p. (α-C-GalCer 5 μg, α-GalCer 2 μg, PI57 50 or 100 μg, PBS30 50 μg); AHR induced 6 wks (42 days) later
Protocol: In FIGS. 6A-6B, two-week-old BALB/c mice (n=6-8/group) (6A) or Tbet^−/− mice (6B) (n=4-6 per group) received 5 μg […] (cGal), 2 μg α-GalCer, or vehicle. After OVA sensitization and challenge, AHR was measured on day 44. In FIG. 6C, donor mice were treated with α-C-GalCer (5 μg) or vehicle i.p. NKT cells served as donors, as in FIG. 4A (n=4 per group). Lung resistance (left) and cell counts in BAL (right) were assessed. […] In FIG. 6E, mice received PI57 (50 μg), α-GalCer (2 μg), or vehicle i.p., and lungs were examined 1 or 14 days later for CD4 and CD8 expression. In FIG. 6F, absolute numbers of CD4^+ NKT and DN NKT subsets from 6E were assessed. In FIG. 6G, BALB/c mice (n=5-8/group) received PI57 or vehicle i.p. Lung resistance (left) and BAL cells (right) were assessed. In FIG. 6H, BALB/c mice treated with PI57 (50 μg), PBS30 (Sphingomonas glycolipid) (50 μg), or vehicle i.p. were assessed for AHR as in 6G. In FIG. 6I, donor mice were treated with PI57 (50 μg) or vehicle i.p. NKT cells served as donors as in FIG. 4A. Lung resistance (left) and BAL cells (right) were assessed (n=4 per group). […] Data represent 2-3 independent experiments. *P<0.05, #P<0.05, ***P<0.001 versus vehicle-OVA (6C, 6G, and 6I), DN NKT saline (6F), and CD4^+ NKT saline (6F).
Induction of AHR and measurement of airway responsiveness in the OVA model.
To induce AHR, BALB/c mice were sensitized with 100 μg of OVA (Sigma-Aldrich) in alum administered i.p (on day 0). After sensitization, mice were exposed to intranasal antigen (50 μg OVA/day) or normal saline for 1 day (day 7; single dose challenge protocol), or for 3 consecutive days (days 7, 8, 9). AHR was assessed on the day after last OVA-challenge. Control mice received i.p. injection of PBS and intranasal administrations of normal saline.

[5] = test system: murine NKT cell lines; test: Mouse NKT cell lines cocultured with BM-derived DCs, cytokine ELISA; type: cell-based; conditions: 48 hours
Protocol: as §1
To establish mouse NKT cell lines, NKT cells were purified by a two-step sorting strategy using MACS. Spleen cells from BALB/c or BALB/c Vα14Jα18 Tg mice were depleted of T cells, B cells, granulocytes, macrophages and DCs by AutoMacs, then stained with PE conjugated-CD1d tetramer and FITC conjugated-anti-TCRβ mAb, and sorted using a MoFlo cell sorter (Dako). The purity of the sorted cells was >99%. To propagate the cells, sorted NKT cells were cultured in 96-well flat-bottom plates (1×10^5 cells/well) with 5×10^3 bone-marrow derived DC in the presence of murine IL-15 (Pepro Tech). Cells were subcultured and restimulated with fresh DCs once a week.
Mouse or human IL-4 and IFN-γ levels were measured by ELISA, as previously described (20). Mean values of triplicate cultures were shown. Data are representative of two or three independent experiments.

[6] = test system: BM2a.3 cells; test: Human NKT cell clone on CD1d Fc-coated plates loaded with lipid, IFN-γ ELISA; type: cell-based; conditions: 5×10^4 NKT cells, 24 hours
Protocol: In FIG. 7A, NKT cell lines were cocultured with BM-derived DCs (BMDCs) and α-GalCer (100 ng/ml), PI57 (10 μg/ml), or vehicle for 48 hours, with or without pre-incubation with anti-CD1d (10 μg/ml). IFN-γ was measured by ELISA. In FIG. 7B, murine NKT cell lines were cocultured as in 7A with BMDCs from WT, Cd1d^−/−, Myd88^−/−, or Trif^−/− mice. Cells were treated with α-GalCer (100 ng/ml), PI57 (2.5, 5, or 10 μg/ml), PBS30 (1, 2.5, or 5 μg/ml), or vehicle for 48 hours. IFN-γ and IL-4 were measured by ELISA. […] In FIG. 7D, mouse NKT cell lines were stained with PE-labeled CD1d tetramers of PI57 or α-GalCer at 4° C. for 45 minutes or 37° C. for 25 minutes, and with anti-TCRβ-APC antibody. Top: Lymphocytes were gated in the FSC/SSC window. Bottom: Percentage of CD1d tetramer+ cells. […] IFN-γ was analyzed by ELISA after 24 hours. […]
Maxisorp plates (Nunc) were coated with PBS diluted recombinant human CD1d/β2 microglobulin Fc fusion proteins (0.5 μg/well; kindly provided by Dr. Jenny Gumperz (64) and anti-LFA-1 antibodies (0.05 μg/well, AbD Serotec) overnight at 4° C. After washing with PBS, immobilized CD1d was loaded with sonicated lipid antigens diluted in 25% DMSO/dH2O by overnight incubation at 37° C. After washing with PBS and culture media, NKT cells were added (5×10^4 cells/well) and culture supernatants were analyzed for IFN-γ by ELISA after overnight culture at 37° C.

With `CCCCCCCCCCCCCC(=O)OC[C@H]1O[C@H](O[C@H]2CC[C@@]3(C)C(=CC[C@H]4[C@@H]5CC[C@H]([C@H](C)CCCC(C)C)[C@@]5(C)CC[C@@H]43)C2)[C@H](O)[C@@H](O)[C@@H]1O` [PI57, Cholesteryl 6-O-tetradecanoyl-α-D-glucopyranoside] the “activation of human NKT cell lines (IFN-γ and IL-4 production)” value [1] was “activated”, the “airway inflammation (BAL cells, lung sections) in recipients of NKT cells from glycolipid-treated donors” value ([2]; donors treated i.p. at 2 wk (α-C-GalCer 5 μg, PI57 50 μg)) was “suppressed AHR and airway inflammation” and the “AHR in recipients of NKT cells from glycolipid-treated donors” value ([2]; donors treated i.p. at 2 wk (α-C-GalCer 5 μg, PI57 50 μg, or α-GalCer), NKT cells harvested 6 wks later) was “suppressed AHR”. The “airway hyperreactivity after ozone exposure” value [3] was “inhibit or suppress airway hyperreactivity”, the “lung inflammation after ozone exposure” value [3] was “inhibit or suppress airway hyperreactivity and lung inflammation” and the “protection against development of OVA-induced AHR (lung resistance)” value [4] was “protected the mice from the development of OVA-induced AHR”. The “cytokine production with DCs from CD1d−/− mice” value ([5]; BMDCs from Cd1d−/− mice) was “failed to support PI57 induced cytokine production”, the “cytokine production with DCs from MyD88−/− or Tri−/− mice” value ([5]; BMDCs from Myd88−/− or Trif−/− mice) was “induced cytokine production” and the “IFN-γ production by NKT cell lines + dendritic cells” value ([5]; PI57 10 μg/ml, BMDCs) was “induced the production of IFN-γ in a CD1d-restricted manner”. The “cytokine (IFN-γ) production after pre-incubation with anti-CD1d mAb” value ([5]; PI57 10 μg/ml, anti-CD1d 10 μg/ml) was “blocked”, the “IFN-γ and IL-4 production compared to PBS30 or α-GalCer” value ([5]; WT BMDCs, PI57 2.5, 5 or 10 μg/ml) was “induced IFN-γ and less IL-4” and the “IFN-γ induced by plate bound CD1d loaded with glycolipid” value [6] was “induced IFN-γ in BM2a.3 cells”.
